Experimental data from paper PMC10043283, “Neuraminidase 1 promotes renal fibrosis development in male mice” (Nature Communications, 2023).
Read-outs that look alike come from different tables or passages of the source.

Molecular target: T1, NEU1 (neuraminidase 1) (Homo sapiens, UniProt Q99519)
T1 construct: recombinant human NEU1 protein
Experiment: SPR (Biacore T200, NEU1 immobilized on CM5 chip)
Type: binding

Kd (read-out: Kd) | Compound | Kd
0.0216 µM | O=C(/C=C/c1ccc(O)c2c1[C@H](C(=O)O[C@H](Cc1ccc(O)c(O)c1)C(=O)O)[C@@H](c1ccc(O)c(O)c1)O2)O[C@H](Cc1ccc(O)c(O)c1)C(=O)O [SaB, salvianolic acid B] | –
52.3 µM | O=C(/C=C/c1ccc(O)c(O)c1/C=C/c1ccc(O)c(O)c1)O[C@H](Cc1ccc(O)c(O)c1)C(=O)O [SaA, salvianolic acid A] | –
– | O=C(/C=C/c1ccc(O)c(O)c1)O[C@H](Cc1ccc(O)c(O)c1)C(=O)O [rosmarinic acid] | 0.141 µM
